# Source: ChEMBL document CHEMBL1154773, “Thiosemicarbazones from the old to new: iron chelators that are more than just ribonucleotide reductase inhibitors” (J Med Chem, 2009)
# Columns and labels:
# SK-N-MC [1] = assay: Antiproliferative activity against human SK-N-MC cells by MTT assay; type: functional, cell-based
# [2] = Antitumor activity against human CHP100 cells at 60 uM after 72 hrs; type: functional
# SK-N-MC [3] = assay: Antiproliferative activity against human SK-N-MC cells; type: functional, cell-based
# SK-N-MC [4] = assay: cells; conditions: Homo sapiens, 72 h
# Description: Antiproliferative activity against human SK-N-MC cells after 72 hrs by MTT assay
# CHP-126 = assay: Antitumor activity against human CHP126 cells at 60 uM after 72 hrs; type: functional
# Rattus norvegicus = assay: Iron chelating activity in rat assessed as faecal iron excretion at 25 to 100 mg/kg, po administered as single dose relative to basal level; type: functional, Feces; conditions: dose mg/kg 25-100
# MRC5 = assay: Antiproliferative activity against human MRC5 cells after 72 hrs by MTT assay; type: cell-based; conditions: MRC5, 72 h
# M109 [5] = assay: Antitumor activity against mouse M109 cells implanted in CD2F1 hybrid mouse assessed as reduction of tumor weight at 6 mg/kg, iv administered 4 days after implantation BID for 5 days measured on day 12 after implantation relative to control; type: functional; parameters: scale not given: the % may be the effect or the level left
# [6] = Toxicity in iv dosed CD2F1 hybrid mouse assessed as maximum tolerated dose administered BID at an interval of 6 hrs for 5 days a week over 2 weeks; type: organism-based; conditions: in vivo
# SK-N-MC [7] = assay: Antiproliferative activity against human SK-N-MC cells after 96 hrs by MTT assay; type: functional, cell-based
# SK-N-MC [8] = assay: Iron chelating activity in human SK-N-MC cells assessed as cellular iron efflux at 25 uM after 3 hrs relative to control; type: functional
# SK-MEL-28 = assay: Antitumor activity against human SK-MEL-28 cells implanted in nude mouse assessed as reduction in tumor growth at 0.4 mg/kg/day measured up to 7 weeks relative to control; type: functional; parameters: scale not given: the % may be the effect or the level left
# SK-N-MC [9] = assay: Effect on iron metabolism in human SK-N-MC cells assessed as cellular iron uptake from transferrin at 25 uM after 3 hrs in presence of pronase relative to control; type: functional
# M109 [10] = assay: Antitumor activity against mouse M109 cells implanted in CD2F1 hybrid mouse assessed as reduction of tumor weight at 0.4 mg/kg, iv administered 4 days after implantation BID for 5 days measured on day 12 after implantation relative to control; type: functional; parameters: scale not given: the % may be the effect or the level left
compound,measurement,setting,value
O=C(N/N=C/c1ccccn1)c1cccs1,IC50,SK-N-MC [1],1 µM
CC(=O)N(O)CCCCCNC(=O)CCC(=O)N(O)CCCCCNC(=O)CCC(=O)N(O)CCCCCN [DEFEROXAMINE],Activity,[2],80%
same,IC50,SK-N-MC [3],22 µM
same,IC50,SK-N-MC [4],5 µM
same,Activity,CHP-126,80%
Cc1ncc(CO)c(/C=N/NC(=O)c2ccncc2)c1O [PYRIDOXAL ISONICOTINOYL HYDRAZONE],fold change (FC),Rattus norvegicus,8
O=C(N/N=C(\c1ccccc1)c1ccccn1)c1ccccc1,IC50,SK-N-MC [1],1 µM
NC(=S)N/N=C/c1c(O)ccc2ccccc12,IC50,MRC5,> 25 µM
same,IC50,SK-N-MC [4],0.5 µM
NC(=S)N/N=C/c1ncccc1N [TRIAPINE],Activity,M109 [5],10%
same,MTD at 2 weeks,[6],6 mg/kg
O=C(N/N=C/c1c(O)ccc2ccccc12)c1ccncc1,IC50,SK-N-MC [7],1 µM
same,IC50,SK-N-MC [3],0.3 µM
same,IC50,SK-N-MC [4],0.3 µM
CN(C)C(=S)NN=C(c1ccccn1)c1ccccn1,Activity,SK-N-MC [8],47%
same,Activity,SK-MEL-28,8%
same,IC50,SK-N-MC [4],0.03 µM
same,Activity,SK-N-MC [9],9%
same,MTD at 2 weeks,[6],0.4 mg/kg
same,Activity,M109 [10],47%
